Data as given in ChEMBL document CHEMBL1135457 (J Med Chem, 2002).

Tests used:
[1] = biological target: T1, Estrogen receptor (Homo sapiens) (UniProt P03372); test: Displacement of radioligand from human Estrogen receptor alpha, percent inhibition at 10 uM
T1 sequence (whole entry): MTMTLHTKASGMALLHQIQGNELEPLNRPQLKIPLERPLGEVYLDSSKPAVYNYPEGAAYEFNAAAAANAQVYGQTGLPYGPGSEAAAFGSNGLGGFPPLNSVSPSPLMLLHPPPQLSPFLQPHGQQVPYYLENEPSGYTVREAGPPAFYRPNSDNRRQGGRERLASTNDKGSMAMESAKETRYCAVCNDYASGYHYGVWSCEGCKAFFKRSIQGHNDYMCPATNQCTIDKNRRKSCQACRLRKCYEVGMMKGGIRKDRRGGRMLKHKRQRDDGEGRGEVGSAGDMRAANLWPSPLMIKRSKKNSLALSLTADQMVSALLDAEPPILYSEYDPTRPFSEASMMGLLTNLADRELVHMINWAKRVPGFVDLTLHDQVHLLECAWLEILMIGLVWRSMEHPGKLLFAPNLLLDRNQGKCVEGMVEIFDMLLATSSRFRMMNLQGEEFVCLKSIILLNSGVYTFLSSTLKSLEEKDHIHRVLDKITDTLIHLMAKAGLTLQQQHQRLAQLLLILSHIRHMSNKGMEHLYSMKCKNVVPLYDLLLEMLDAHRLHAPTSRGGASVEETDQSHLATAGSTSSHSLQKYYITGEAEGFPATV

Estrogen receptor beta = Estrogen receptor beta (Homo sapiens, UniProt Q92731); test: Displacement of radioligand from human Estrogen receptor beta, percent inhibition at 10 uM
Chain of Estrogen receptor beta (Q92731 whole entry): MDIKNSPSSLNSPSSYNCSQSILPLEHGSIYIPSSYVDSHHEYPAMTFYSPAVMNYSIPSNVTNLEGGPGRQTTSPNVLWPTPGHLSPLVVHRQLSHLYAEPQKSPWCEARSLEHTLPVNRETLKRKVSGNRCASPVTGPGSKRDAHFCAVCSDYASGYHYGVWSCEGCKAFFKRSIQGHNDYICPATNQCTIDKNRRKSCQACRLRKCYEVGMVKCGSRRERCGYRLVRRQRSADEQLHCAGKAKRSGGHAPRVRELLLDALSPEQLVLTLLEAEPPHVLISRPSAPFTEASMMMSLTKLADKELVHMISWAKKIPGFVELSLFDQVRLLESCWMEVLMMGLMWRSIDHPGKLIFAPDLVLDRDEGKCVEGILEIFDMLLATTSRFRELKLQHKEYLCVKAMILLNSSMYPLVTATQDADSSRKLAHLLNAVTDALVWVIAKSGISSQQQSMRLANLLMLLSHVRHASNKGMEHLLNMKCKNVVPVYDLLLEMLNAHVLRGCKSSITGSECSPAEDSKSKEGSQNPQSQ

Glucocorticoid receptor = biological target: T2, Glucocorticoid receptor (Homo sapiens, UniProt P04150); test: Displacement of 10 nM [3H]dexamethasone from human Glucocorticoid receptor
T2 sequence (P04150 whole entry): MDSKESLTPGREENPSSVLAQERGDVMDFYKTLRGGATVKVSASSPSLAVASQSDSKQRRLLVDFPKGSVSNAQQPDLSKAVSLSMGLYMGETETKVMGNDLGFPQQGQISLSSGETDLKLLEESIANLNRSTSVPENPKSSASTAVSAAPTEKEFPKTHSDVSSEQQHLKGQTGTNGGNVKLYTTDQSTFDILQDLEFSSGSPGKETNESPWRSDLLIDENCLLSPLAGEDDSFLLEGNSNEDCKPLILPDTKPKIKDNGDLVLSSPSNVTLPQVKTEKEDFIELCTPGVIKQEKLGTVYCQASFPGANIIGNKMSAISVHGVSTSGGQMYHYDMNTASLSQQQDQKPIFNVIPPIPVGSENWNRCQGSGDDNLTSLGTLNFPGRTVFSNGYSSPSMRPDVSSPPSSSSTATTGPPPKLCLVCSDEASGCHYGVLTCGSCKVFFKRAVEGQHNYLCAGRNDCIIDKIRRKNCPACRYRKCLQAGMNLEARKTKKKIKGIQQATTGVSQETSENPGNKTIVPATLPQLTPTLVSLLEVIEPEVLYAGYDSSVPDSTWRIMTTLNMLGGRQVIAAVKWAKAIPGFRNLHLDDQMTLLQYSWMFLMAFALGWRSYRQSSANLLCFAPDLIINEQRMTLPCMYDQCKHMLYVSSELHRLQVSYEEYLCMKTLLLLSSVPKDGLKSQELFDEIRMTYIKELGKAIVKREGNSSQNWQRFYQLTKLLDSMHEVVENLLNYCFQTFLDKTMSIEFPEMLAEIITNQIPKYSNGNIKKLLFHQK

Androgen receptor = biological target: T3, Androgen receptor (Homo sapiens, UniProt P10275); test: Displacement of [3H]DHT from human Androgen receptor
T3 sequence (P10275 whole entry): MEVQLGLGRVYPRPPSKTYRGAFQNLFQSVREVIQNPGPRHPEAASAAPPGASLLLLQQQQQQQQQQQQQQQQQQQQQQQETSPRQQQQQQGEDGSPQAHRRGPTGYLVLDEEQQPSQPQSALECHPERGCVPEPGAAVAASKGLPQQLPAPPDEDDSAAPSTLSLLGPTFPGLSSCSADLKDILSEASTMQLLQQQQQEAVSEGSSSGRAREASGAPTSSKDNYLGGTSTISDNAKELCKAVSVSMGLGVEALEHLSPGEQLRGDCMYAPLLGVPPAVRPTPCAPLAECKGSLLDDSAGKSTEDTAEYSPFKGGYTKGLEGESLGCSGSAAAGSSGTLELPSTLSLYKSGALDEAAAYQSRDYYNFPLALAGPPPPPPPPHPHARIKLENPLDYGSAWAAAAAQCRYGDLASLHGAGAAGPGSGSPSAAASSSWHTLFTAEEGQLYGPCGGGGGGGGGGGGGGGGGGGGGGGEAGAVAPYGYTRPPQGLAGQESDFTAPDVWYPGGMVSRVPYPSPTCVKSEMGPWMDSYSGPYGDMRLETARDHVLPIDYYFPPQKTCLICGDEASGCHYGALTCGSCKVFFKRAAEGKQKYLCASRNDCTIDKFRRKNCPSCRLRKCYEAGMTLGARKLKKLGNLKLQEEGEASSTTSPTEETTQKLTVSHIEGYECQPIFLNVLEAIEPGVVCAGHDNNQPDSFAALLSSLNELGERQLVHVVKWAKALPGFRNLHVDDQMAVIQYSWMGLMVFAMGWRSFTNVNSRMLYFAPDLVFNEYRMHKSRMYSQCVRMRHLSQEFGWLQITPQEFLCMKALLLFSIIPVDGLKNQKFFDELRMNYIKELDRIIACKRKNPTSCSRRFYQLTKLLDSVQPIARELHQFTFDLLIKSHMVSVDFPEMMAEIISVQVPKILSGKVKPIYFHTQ

SMILES	inhibition [1] [%]	inhibition (Estrogen receptor beta) [%]	Ki (Glucocorticoid receptor) [nM]	Ki (Androgen receptor) [nM]
CC#C[C@@]1(O)CC[C@@]2(Cc3ccccc3)c3ccc(O)cc3CC[C@@H]2C1	50	57	0.17	–
CC#C[C@]1(O)CCC2C3CCC4=CC(=O)CC[C@]4(Cc4ccc(C)cc4)C3=CC[C@@]21C (some centres undefined)	20	–	0.1	90
O=C1CC[C@@]2(Cc3ccccc3)c3ccc(O)cc3CC[C@@H]2C1	45	54	5.96	1300
Oc1ccc2c(c1)CC[C@@H]1C[C@@](O)(C#CCl)CC[C@@]21Cc1ccccc1	62	75	0.1	130
